In US10961192B2, “(R)-4-hydroxy-2-oxo-1-pyrrolidineacetamide crystal form, preparation method therefor, and application thereof” (CHONGQING RUZER PHARMACEUTICAL COMPANY LIMITED, priority 2017, dated 2021):

Tests used:
Format in all cases: physicochemical
[1] = Stability test under high temperature conditions (60° C., 5 days), related substance; conditions: for changes of the related substances in 5 days: high temperature of 60° C.; for Day 0: Related substance / Day 5: Related substance / Related material changes: 60° C.; for Day 0: Related substance: day 0, average of 5 groups; for Day 5: Related substance: day 5, average of 5 groups; for Related material changes: day 5 versus day 0
Protocol: Stability test of the crystalline form I of (R)-4-hydroxy-2-oxo-1-pyrrolidineacetamideunder high temperature conditions. The crystalline form I of (R)-4-hydroxy-2-oxo-1-pyrrolidinylacetamide prepared in Examples 1 and 3-7 was placed in a flat weighing bottle and spread into thin layers of <5 mm thick, sealed in a clean container respectively and placed at 60° C. for 5 days; samples were taken and detected on day 0 and day 5, respectively.

Solubility in water = test: Solubility in water
[2] = Angle of repose by injection method (fixed funnel method); conditions: average of 5 groups
Protocol: (§1) In this test, the angle of repose of the crystalline form I of (R)-4-hydroxy-2-oxo-1-pyrrolidineacetamide prepared by the methods of Examples 1 and 3-7 was measured by an injection method (fixed funnel method). The samples to be tested were poured into the funnel, and they were gently and evenly dropped into the center of the disc to form a cone, when the materials fell freely from the oblique edge of the powder along the edge of the disc, the feedings were stopped, and the angles of repose were determined by the protractor; the sample traits and the clarity of the solution were examined, each example was tested for 5 groups and the average was obtained, the results are as follows: […]

Clarity of solution = conditions: average of 5 groups
Protocol: as §1

Structure (SMILES)	changes of the related substances in 5 days [1]	changes of the related substances in 5 days ([1]; listed as crystalline form of (R)-4-hydroxy-2-oxo-1-pyrrolidineacetamide)	solubility (Solubility in water)	angle of repose [2]	Day 0: Related substance [1]	Day 5: Related substance [1]	Related material changes [1]	clarity of solution (Clarity of solution)
NC(=O)CN1C[C@H](O)CC1=O [(R)-4-hydroxy-2-oxo-1-pyrrolidineacetamide]	less than 0.15%	tiny	≥ 100 mg/mL					
NC(=O)CN1C[C@H](O)CC1=O [Example 1, (R)-4-hydroxy-2-oxo-1-pyrrolidineacetamide]				28 °	0.23%	0.35%	0.12%	clarification
NC(=O)CN1C[C@H](O)CC1=O [Example 3, (R)-4-hydroxy-2-oxo-1-pyrrolidineacetamide]				28.3 °	0.22%	0.36%	0.14%	clarification
NC(=O)CN1C[C@H](O)CC1=O [Example 4, (R)-4-hydroxy-2-oxo-1-pyrrolidineacetamide]				28.5 °	0.26%	0.39%	0.13%	clarification
NC(=O)CN1C[C@H](O)CC1=O [Example 5, (R)-4-hydroxy-2-oxo-1-pyrrolidineacetamide]				27.8 °	0.25%	0.37%	0.12%	clarification
NC(=O)CN1C[C@H](O)CC1=O [Example 6, (R)-4-hydroxy-2-oxo-1-pyrrolidineacetamide]				27.8 °	0.26%	0.37%	0.11%	clarification
NC(=O)CN1C[C@H](O)CC1=O [Example 7, (R)-4-hydroxy-2-oxo-1-pyrrolidineacetamide]				28 °	0.22%	0.33%	0.11%	clarification
